Experiments:
Format in all cases: in vivo
[1] = system: Setaria faberi (SETFA); assay: Example B post-emergence herbicidal greenhouse test; conditions: 360 h, evaluated after 15 days, 100=total damage to plant, 0=no damage
Procedure: (§1) Seeds of a variety of test species were sown in standard soil in pots. After cultivation for one day (pre-emergence) or after 10 days cultivation (post-emergence) under controlled conditions in a glasshouse, the plants were sprayed with an aqueous spray solution derived from the formulation of the technical active ingredient in 0.6 ml acetone and 45 ml formulation solution containing 10.6% Emulsogen EL (Registry number 61791-12-6), 42.2% N-methylpyrrolidone, 42.2% dipropylene glycol monomethyl ether (Registry number 34590-94-8) and 0.2% X-77 (Registry number 11097-66-8). The test plants were then grown in a greenhouse under optimum conditions until, 15 days later for post-emergence and 20 days for pre-emergence, the test was evaluated (100=total damage to plant; 0=no damage to plant).
(§2) Alopecurus myosuroides (ALOMY), Avena fatua (AVEFA), Lolium perenne (LOLPE), Setaria faberi (SETFA), Digitaria sanguinalis (DIGSA), Echinochloa crus-galli (ECHCG)

[2] = system: Digitaria sanguinalis (DIGSA); assay: as above; conditions: 360 h, evaluated after 15 days, 100=total damage to plant, 0=no damage
Procedure: as §1, §2

[3] = system: Alopecurus myosuroides (ALOMY); assay: as above; conditions: 360 h, evaluated after 15 days, 100=total damage to plant, 0=no damage
Procedure: as §1, §2

[4] = system: Lolium perenne (LOLPE); assay: as above; conditions: 360 h, evaluated after 15 days, 100=total damage to plant, 0=no damage
Procedure: as §1, §2

[5] = system: Echinochloa crus-galli (ECHCG); assay: as above; conditions: 360 h, evaluated after 15 days, 100=total damage to plant, 0=no damage
Procedure: as §1, §2

[6] = system: Avena fatua (AVEFA); assay: as above; conditions: 360 h, evaluated after 15 days, 100=total damage to plant, 0=no damage
Procedure: as §1, §2

[7] = system: Setaria faberi (SETFA); assay: Example B pre-emergence herbicidal greenhouse test; conditions: 480 h, evaluated after 20 days, 100=total damage to plant, 0=no damage
Procedure: as §1, §2

[8] = system: Digitaria sanguinalis (DIGSA); assay: Example B pre-emergence herbicidal greenhouse test; conditions: 480 h, evaluated after 20 days, 100=total damage to plant, 0=no damage
Procedure: as §1, §2

[9] = system: Alopecurus myosuroides (ALOMY); assay: Example B pre-emergence herbicidal greenhouse test; conditions: 480 h, evaluated after 20 days, 100=total damage to plant, 0=no damage
Procedure: as §1, §2

[10] = system: Lolium perenne (LOLPE); assay: Example B pre-emergence herbicidal greenhouse test; conditions: 480 h, evaluated after 20 days, 100=total damage to plant, 0=no damage
Procedure: as §1, §2

[11] = system: Echinochloa crus-galli (ECHCG); assay: Example B pre-emergence herbicidal greenhouse test; conditions: 480 h, evaluated after 20 days, 100=total damage to plant, 0=no damage
Procedure: as §1, §2

[12] = system: Avena fatua (AVEFA); assay: Example B pre-emergence herbicidal greenhouse test; conditions: 480 h, evaluated after 20 days, 100=total damage to plant, 0=no damage
Procedure: as §1, §2

SMILES	pest or weed control at 125 g/ha [1] [%]	pest or weed control at 125 g/ha [2] [%]	pest or weed control at 125 g/ha [3] [%]	pest or weed control at 125 g/ha [4] [%]	pest or weed control at 125 g/ha [5] [%]	pest or weed control at 125 g/ha [6] [%]	pest or weed control at 250 g/ha [7] [%]	pest or weed control at 250 g/ha [8] [%]	pest or weed control at 250 g/ha [9] [%]	pest or weed control at 250 g/ha [10] [%]	pest or weed control at 250 g/ha [11] [%]	pest or weed control at 250 g/ha [12] [%]
Cc1ccc(-c2ccc(Cl)c(C#N)c2)cc1C1=C(O)[C@H]2CC[C@H](C2)C1=O (single isomer, unassigned) [Compound T25]	30	80	20	0	0	0	80	80	0	20	50	0
Cc1ccc(-c2ccc(Cl)cc2C)cc1C1=C(O)[C@H]2CC[C@H](C2)C1=O (single isomer, unassigned) [Compound T26]	60	10	20	10	60	0	50	0	0	20	30	0
Cc1ccc(-c2ccc(Cl)cc2F)cc1C1=C(O)[C@H]2CC[C@H](C2)C1=O (single isomer, unassigned) [Compound T27]	90	70	30	30	80	70	100	80	60	70	80	50
Cc1ccc(-c2cc(Cl)cc(Cl)c2)cc1C1=C(O)[C@H]2CC[C@H](C2)C1=O (single isomer, unassigned) [Compound T28]	10	0	20	0	0	10	0	0	0	20	0	10
Cc1ccc(-c2ccc(F)c(Cl)c2)cc1C1=C(O)[C@H]2CC[C@H](C2)C1=O (single isomer, unassigned) [Compound T29]	60	10	30	0	50	0	70	0	10	20	20	0
COc1ccc(Cl)cc1-c1ccc(C)c(C2=C(O)[C@H]3CC[C@H](C3)C2=O)c1 (single isomer, unassigned) [Compound T30]	0	0	10	10	0	10	0	0	0	0	0	0
Cc1ccc(-c2ccc(Cl)c(F)c2)cc1C1=C(O)[C@H]2CC[C@H](C2)C1=O (single isomer, unassigned) [Compound T31]	80	70	30	20	70	0	100	70	70	30	80	40
CC(=O)OC1=C(c2c(C)cc(-c3ccccc3)cc2C)C(=O)[C@@H]2CC[C@H]1C2 [Compound P1]	70	60	20	20	60	0	70	70	30	60	100	30

— US8828908B2, “Herbicidally active bicyclic 1,3-dione compounds” (Syngenta Limited, priority 2007, dated 2014)
